Laboratory results taken from ChEMBL document CHEMBL5113479, “Pyrido[2,3-d]pyrimidine-2,4(1H,3H)-dione derivatives as RAF-MEK-ERK pathway signaling pathway blockers: Synthesis, cytotoxic activity, mechanistic investigation and structure-activity relationships” (Eur J Med Chem, 2022).
pIC50: −log10 of the molar value. The source made the active and inactive calls. The rule behind the calls is not given here.

Columns and labels:
MCF7 = assay: Antiproliferative activity against human MCF7 cells assessed as inhibition of cell growth measured after 72 hrs by CCK8 assay; format: functional, cell-based; conditions: MCF7, 72 h
A-375 [1] = assay: Antiproliferative activity against human A-375 cells assessed as inhibition of cell growth measured after 72 hrs by CCK8 assay; format: functional, cell-based; conditions: A-375, 72 h
[2] = Cytotoxicity against human C-28/I2 cells measured after 72 hrs by CCK8 assay; format: toxicity, cell-based
SK-MEL-2 [3] = assay: Antiproliferative activity against human SK-MEL-2 cells assessed as inhibition of cell growth measured after 72 hrs by CCK8 assay; format: functional, cell-based; conditions: SK-MEL-2, 72 h
SK-HEP1 [4] = assay: Antiproliferative activity against human SK-HEP1 cells assessed as inhibition of cell growth measured after 72 hrs by CCK8 assay; format: functional, cell-based; conditions: SK-HEP1, 72 h
SK-HEP1 [5] = assay: Antiproliferative activity against human SK-HEP1 cells cultured as 3D spheroids assessed as appearance of flattened spheroids at 10 uM measured after 48 hrs by fluorescence microscopic analysis; format: functional, cell-based
SK-HEP1 [6] = assay: Antiproliferative activity against human SK-HEP1 cells cultured as 3D spheroids assessed as appearance of collapsed spheroids at 10 uM measured after 96 hrs by fluorescence microscopic analysis; format: functional, cell-based
SK-HEP1 [7] = assay: Antiproliferative activity against human SK-HEP1 cells cultured as 3D spheroids assessed as appearance of crumbled spheroids at 10 uM measured after 120 hrs by fluorescence microscopic analysis; format: functional, cell-based
SK-HEP1 [8] = assay: Inhibition of colony formation in human SK-HEP1 cells assessed as reduction in number of colonies at 0.2 uM measured after 7 days by crystal violet staining based assay; format: functional, cell-based; conditions: time 7.0 day
SK-HEP1 [9] = assay: Inhibition of colony formation in human SK-HEP1 cells assessed as reduction in number of colonies at 2 uM measured after 7 days by crystal violet staining based assay; format: functional; conditions: SK-HEP1, 168 h, time 7 day
SK-HEP1 [10] = assay: Inhibition of cell migration in human SK-HEP1 cells at 2.5 uM measured after 12 to 24 hrs by inverted microscopy based wound healing assay; format: functional; conditions: time 12-24 hrs
SK-HEP1 [11] = assay: Induction of cell cycle arrest in human SK-HEP1 cells assessed as accumulation of cells at G0/G1 phase at 5 uM measured after 24 hrs by propidium iodide staining based flow cytometric analysis (reference value: 48.40 %); format: functional
SK-HEP1 [12] = assay: Induction of cell cycle arrest in human SK-HEP1 cells assessed as accumulation of cells at G2/M phase at 5 uM measured after 24 hrs by propidium iodide staining based flow cytometric analysis (reference value: 18.32 %); format: functional
SK-HEP1 [13] = assay: Induction of cell cycle arrest in human SK-HEP1 cells assessed as accumulation of cells at S phase at 5 uM measured after 24 hrs by propidium iodide staining based flow cytometric analysis (reference value: 33.08 %); format: functional
SK-HEP1 [14] = assay: Induction of cell cycle arrest in human SK-HEP1 cells assessed as accumulation of cells at G0/G1 phase at 2.5 uM measured after 24 hrs by propidium iodide staining based flow cytometric analysis (reference value: 48.40 %); format: functional
SK-HEP1 [15] = assay: Induction of cell cycle arrest in human SK-HEP1 cells assessed as accumulation of cells at G2/M phase at 2.5 uM measured after 24 hrs by propidium iodide staining based flow cytometric analysis (reference value: 18.32 %); format: functional
SK-HEP1 [16] = assay: Induction of cell cycle arrest in human SK-HEP1 cells assessed as accumulation of cells at S phase at 2.5 uM measured after 24 hrs by propidium iodide staining based flow cytometric analysis (reference value: 33.08 %); format: functional
SK-HEP1 [17] = assay: Induction of cell cycle arrest in human SK-HEP1 cells assessed as accumulation of cells at G0/G1 phase at 1.25 uM measured after 24 hrs by propidium iodide staining based flow cytometric analysis (reference value: 48.40 %); format: functional
SK-HEP1 [18] = assay: Induction of cell cycle arrest in human SK-HEP1 cells assessed as accumulation of cells at G2/M phase at 1.25 uM measured after 24 hrs by propidium iodide staining based flow cytometric analysis (reference value: 18.32 %); format: functional
SK-HEP1 [19] = assay: Induction of cell cycle arrest in human SK-HEP1 cells assessed as accumulation of cells at S phase at 1.25 uM measured after 24 hrs by propidium iodide staining based flow cytometric analysis (reference value: 33.08 %); format: functional
SK-HEP1 [20] = assay: Induction of apoptosis in human SK-HEP1 cells assessed as late apoptotic cells at 1.25 to 5 uM measured after 48 hrs by AnnexinV-FITC/propidium iodide staining based flow cytometry analysis (reference value: 0.36 %); format: functional; conditions: dose 1.25-5 µM
A-375 [21] = assay: Induction of apoptosis in human A-375 cells assessed as late apoptotic cells at 1.25 to 5 uM measured after 48 hrs by AnnexinV-FITC/propidium iodide staining based flow cytometry analysis (reference value: 1.61 %); format: functional; conditions: dose 1.25-5 µM
[22] = molecular target: T1, Mitogen-activated protein kinase; ERK1/ERK2 (Homo sapiens) (UniProt P27361+P28482); assay: Inhibition of intracellular ERK1/2 phosphorylation in human SK-HEP1 cells at 5 uM by Western blot analysis; format: cell-based
[23] = molecular target: T1, Mitogen-activated protein kinase; ERK1/ERK2 (Homo sapiens); assay: Inhibition of intracellular ERK1/2 phosphorylation in human A-375 cells at 5 uM by Western blot analysis; format: cell-based
SK-HEP1 [24] = assay: Induction of apoptosis in human SK-HEP1 cells assessed as downregulation of B-Raf protein expression by Western blot analysis; format: functional, cell-based; conditions: dose 1-5 µM, DDE = dose-dependent effect
SK-HEP1 [25] = assay: Induction of apoptosis in human SK-HEP1 cells assessed as downregulation of ERK1/2 protein expression by Western blot analysis; format: functional, cell-based; conditions: dose 1-5 µM, DDE = dose-dependent effect
[26] = molecular target: T1, Mitogen-activated protein kinase; ERK1/ERK2 (Homo sapiens); assay: Inhibition of ERK1/2 phosphorylation in human SK-HEP1 cells by Western blot analysis; format: cell-based; conditions: dose 1-5 µM, DDE = dose-dependent effect
SK-HEP1 [27] = assay: Inhibition of MEK1/2 phosphorylation in human SK-HEP1 cells by Western blot analysis; format: cell-based; conditions: dose 1-5 µM, DDE = dose-dependent effect
SK-HEP1 [28] = assay: Induction of apoptosis in human SK-HEP1 cells assessed as downregulation of ERK1 expression at 2.5 uM measured after 48 hrs by fluorescent quantitative PCR analysis relative to control; format: functional
SK-HEP1 [29] = assay: Induction of apoptosis in human SK-HEP1 cells assessed as downregulation of ERK2 expression at 2.5 uM measured after 48 hrs by fluorescent quantitative PCR analysis relative to control; format: functional
SK-HEP1 [30] = assay: Induction of ROS production in human SK-HEP1 cells at 1 to 2 uM measured after 24 hrs by DCFH-DA staining based confocal microscopic and flow cytometry analysis; format: functional, cell-based; conditions: dose 1-2 µM
SK-HEP1 [31] = assay: Induction of apoptosis in human SK-HEP1 cells assessed as upregulation of activated caspase-9 protein expression at 1 to 2 uM by Western blot analysis; format: functional, cell-based; conditions: dose 1-2 µM
SK-HEP1 [32] = assay: Induction of apoptosis in human SK-HEP1 cells assessed as upregulation of activated caspase-3 protein expression at 1 to 2 uM by Western blot analysis; format: functional, cell-based; conditions: dose 1-2 µM
A-375 [33] = assay: Cytotoxicity against human A-375 cells assessed as inhibition of cell growth; format: functional, cell-based
SK-MEL-2 [34] = assay: Antiproliferative activity against human SK-MEL-2 cells assessed as inhibition of cell growth; format: functional, cell-based
[35] = Cytotoxicity against human C-28/I2 cells; format: toxicity, cell-based

T1 sequence (P27361 whole entry, looked up): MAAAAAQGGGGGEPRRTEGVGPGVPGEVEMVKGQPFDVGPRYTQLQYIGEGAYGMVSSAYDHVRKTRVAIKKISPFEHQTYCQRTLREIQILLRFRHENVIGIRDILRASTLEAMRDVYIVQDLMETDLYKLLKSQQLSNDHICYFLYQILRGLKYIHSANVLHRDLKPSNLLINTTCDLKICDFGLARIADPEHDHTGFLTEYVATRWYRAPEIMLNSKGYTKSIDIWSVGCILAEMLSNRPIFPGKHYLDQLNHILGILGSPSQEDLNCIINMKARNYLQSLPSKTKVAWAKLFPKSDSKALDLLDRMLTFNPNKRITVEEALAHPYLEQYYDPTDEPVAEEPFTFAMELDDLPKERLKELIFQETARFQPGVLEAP
T1 sequence (P28482 whole entry, looked up): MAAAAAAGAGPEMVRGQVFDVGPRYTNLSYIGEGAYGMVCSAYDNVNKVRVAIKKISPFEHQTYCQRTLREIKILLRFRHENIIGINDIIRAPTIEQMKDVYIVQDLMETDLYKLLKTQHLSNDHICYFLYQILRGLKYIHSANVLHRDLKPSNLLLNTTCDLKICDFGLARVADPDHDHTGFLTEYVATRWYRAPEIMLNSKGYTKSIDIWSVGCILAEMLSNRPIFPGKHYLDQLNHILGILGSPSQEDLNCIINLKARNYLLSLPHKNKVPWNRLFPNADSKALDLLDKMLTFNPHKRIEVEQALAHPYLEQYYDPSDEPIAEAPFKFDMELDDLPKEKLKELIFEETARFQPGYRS

CN1CCN(c2cc(NCC(=O)Nc3cccc(Cl)c3)c3c(=O)n(C)c(=O)n(C)c3n2)CC1
pIC50 (MCF7): 5.50 | pIC50 (A-375 [1]): 5.28 | CC50 at 72 h [2]: > 50 µM | pIC50 (SK-MEL-2 [3]): 5.32 | pIC50 (SK-HEP1 [4]): 5.69 | Activity (SK-HEP1 [5]): Active | Activity (SK-HEP1 [6]): Active | Activity (SK-HEP1 [7]): Active | inhibition (SK-HEP1 [8]): Active | inhibition at 2 µM (SK-HEP1 [9]): 100% | inhibition (SK-HEP1 [10]): Active | Activity (SK-HEP1 [11]): 44.85% | Activity (SK-HEP1 [12]): 23.92% | Activity (SK-HEP1 [13]): 31.23% | Activity (SK-HEP1 [14]): 45.09% | Activity (SK-HEP1 [15]): 19.98% | Activity (SK-HEP1 [16]): 34.93% | Activity (SK-HEP1 [17]): 44.1% | Activity (SK-HEP1 [18]): 21.31% | Activity (SK-HEP1 [19]): 34.59% | Activity (SK-HEP1 [20]): 42.4% | Activity (A-375 [21]): 32.6% | inhibition [22]: Active | inhibition [23]: Active | Activity (SK-HEP1 [24]): Dde | Activity (SK-HEP1 [25]): Dde | inhibition [26]: Dde | inhibition (SK-HEP1 [27]): Dde | Activity (SK-HEP1 [28]): 70% | Activity (SK-HEP1 [29]): 60% | Activity (SK-HEP1 [30]): Active | Activity (SK-HEP1 [31]): Active | Activity (SK-HEP1 [32]): Active

O=c1[nH]c2c(c(O)c1Cc1ccccc1)c(=O)n(-c1ccc(OC(F)(F)F)cc1)c(=O)n2-c1ccc(OC(F)(F)F)cc1
pIC50 (MCF7): 5.00 | pIC50 (A-375 [1]): 4.61 | pIC50 (A-375 [33]): 4.89 | pIC50 (SK-MEL-2 [34]): 4.86 | CC50 [35]: 35.9 µM
